Results on three molecules are retold here after ChEMBL document CHEMBL1152699, “Taste-guided identification of high potency TRPA1 agonists from Perilla frutescens” (Bioorg Med Chem, 2009).

Common to all, as to type: functional, cell-based
In assay [1] the target is Transient receptor potential cation channel subfamily M member 8 (Rattus norvegicus) (UniProt Q8R455). Put plainly: (§1) Agonist activity at rat recombinant TRPM8 receptor expressed in HEK293 cells assessed as increase in intracellular calcium concentration by fluorimetric test. A general note: A change in cytosolic calcium serves as a functional read-out for many receptors and channels.

Assay [2] concerns the target Transient receptor potential cation channel subfamily M member 8 (Rattus norvegicus, UniProt Q8R455). The assay is described as §1.
The target of assay [3] is Transient receptor potential cation channel subfamily A member 1 (Rattus norvegicus, UniProt Q6RI86). The experiment in a line: Agonist activity at rat recombinant TRPA1 receptor expressed in HEK293 cells assessed as increase in intracellular calcium concentration by fluorimetric test.
Assay [4] concerns the target Transient receptor potential cation channel subfamily A member 1 (Rattus norvegicus) (UniProt Q6RI86). The experiment in a line: Agonist activity at rat recombinant TRPA1 receptor expressed in HEK293 cells assessed as increase in intracellular calcium concentration by fluorimetric test in presence of TRP channel blocker ruthenium red.
The target is the same in assay [5]. The experiment in a line: Antagonist activity at rat recombinant TRPA1 receptor expressed in HEK293 cells assessed as inhibition of allylisothiocyanate-induced increase in intracellular calcium concentration preincubated for 5 mins by fluorimetric test.
For assay [6] the target is unchanged. Put plainly: Agonist activity at rat recombinant TRPA1 receptor expressed in HEK293 cells assessed as increase in intracellular calcium concentration by fluorimetric test relative to 100 uM allylisothiocyanate.
The target in assay [7] is Transient receptor potential cation channel subfamily M member 8 (Rattus norvegicus) (UniProt Q8R455). The experiment in a line: Antagonist activity at rat recombinant TRPM8 receptor expressed in HEK293 cells assessed as inhibition of icilin-induced increase in intracellular calcium concentration at 200 uM preincubated for 5 mins before icilin treatment by fluorimetric test.

Assay [8] has the same target. Put plainly: Antagonist activity at rat recombinant TRPM8 receptor expressed in HEK293 cells assessed as inhibition of icilin-induced increase in intracellular calcium concentration at 200 uM preincubated […] before icilin treatment by fluorimetric test.

The inhibition is how much of the control response was suppressed.

The structures appear in SMILES notation. The source made the active and inactive calls. The rule behind the calls is not given here.

Sequence of Transient receptor potential cation channel subfamily A member 1 (Rattus norvegicus) (Q6RI86 whole entry): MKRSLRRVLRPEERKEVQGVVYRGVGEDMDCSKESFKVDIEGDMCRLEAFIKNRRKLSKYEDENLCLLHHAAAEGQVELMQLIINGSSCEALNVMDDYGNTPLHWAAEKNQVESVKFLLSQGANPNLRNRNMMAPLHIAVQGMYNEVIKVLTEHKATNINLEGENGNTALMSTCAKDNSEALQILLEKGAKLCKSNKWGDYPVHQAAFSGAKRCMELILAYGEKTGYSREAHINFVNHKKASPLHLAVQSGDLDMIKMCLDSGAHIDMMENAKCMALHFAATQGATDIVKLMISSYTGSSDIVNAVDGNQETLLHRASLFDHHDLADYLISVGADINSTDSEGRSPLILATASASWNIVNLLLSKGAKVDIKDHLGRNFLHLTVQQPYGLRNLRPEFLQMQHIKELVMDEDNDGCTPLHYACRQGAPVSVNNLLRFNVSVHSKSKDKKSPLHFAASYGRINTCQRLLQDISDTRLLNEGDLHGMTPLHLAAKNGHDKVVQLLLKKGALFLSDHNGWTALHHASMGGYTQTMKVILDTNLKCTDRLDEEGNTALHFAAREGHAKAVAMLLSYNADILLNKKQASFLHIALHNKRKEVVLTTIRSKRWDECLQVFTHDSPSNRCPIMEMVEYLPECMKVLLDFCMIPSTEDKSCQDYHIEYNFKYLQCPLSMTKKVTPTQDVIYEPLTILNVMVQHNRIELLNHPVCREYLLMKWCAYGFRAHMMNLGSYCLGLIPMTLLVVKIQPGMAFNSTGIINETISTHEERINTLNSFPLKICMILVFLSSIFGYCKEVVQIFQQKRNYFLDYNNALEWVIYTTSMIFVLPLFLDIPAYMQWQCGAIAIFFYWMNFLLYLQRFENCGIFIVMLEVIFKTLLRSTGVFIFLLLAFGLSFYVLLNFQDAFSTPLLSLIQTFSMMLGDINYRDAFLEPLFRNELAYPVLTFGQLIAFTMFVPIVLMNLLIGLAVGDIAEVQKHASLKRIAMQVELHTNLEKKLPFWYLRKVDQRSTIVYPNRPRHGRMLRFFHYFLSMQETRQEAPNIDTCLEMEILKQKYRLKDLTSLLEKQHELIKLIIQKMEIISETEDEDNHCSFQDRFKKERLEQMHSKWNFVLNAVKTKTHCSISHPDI
Sequence of Transient receptor potential cation channel subfamily A member 1 (Q6RI86 whole entry): as above
Sequence of Transient receptor potential cation channel subfamily M member 8 (Rattus norvegicus) (Q8R455 whole entry, looked up): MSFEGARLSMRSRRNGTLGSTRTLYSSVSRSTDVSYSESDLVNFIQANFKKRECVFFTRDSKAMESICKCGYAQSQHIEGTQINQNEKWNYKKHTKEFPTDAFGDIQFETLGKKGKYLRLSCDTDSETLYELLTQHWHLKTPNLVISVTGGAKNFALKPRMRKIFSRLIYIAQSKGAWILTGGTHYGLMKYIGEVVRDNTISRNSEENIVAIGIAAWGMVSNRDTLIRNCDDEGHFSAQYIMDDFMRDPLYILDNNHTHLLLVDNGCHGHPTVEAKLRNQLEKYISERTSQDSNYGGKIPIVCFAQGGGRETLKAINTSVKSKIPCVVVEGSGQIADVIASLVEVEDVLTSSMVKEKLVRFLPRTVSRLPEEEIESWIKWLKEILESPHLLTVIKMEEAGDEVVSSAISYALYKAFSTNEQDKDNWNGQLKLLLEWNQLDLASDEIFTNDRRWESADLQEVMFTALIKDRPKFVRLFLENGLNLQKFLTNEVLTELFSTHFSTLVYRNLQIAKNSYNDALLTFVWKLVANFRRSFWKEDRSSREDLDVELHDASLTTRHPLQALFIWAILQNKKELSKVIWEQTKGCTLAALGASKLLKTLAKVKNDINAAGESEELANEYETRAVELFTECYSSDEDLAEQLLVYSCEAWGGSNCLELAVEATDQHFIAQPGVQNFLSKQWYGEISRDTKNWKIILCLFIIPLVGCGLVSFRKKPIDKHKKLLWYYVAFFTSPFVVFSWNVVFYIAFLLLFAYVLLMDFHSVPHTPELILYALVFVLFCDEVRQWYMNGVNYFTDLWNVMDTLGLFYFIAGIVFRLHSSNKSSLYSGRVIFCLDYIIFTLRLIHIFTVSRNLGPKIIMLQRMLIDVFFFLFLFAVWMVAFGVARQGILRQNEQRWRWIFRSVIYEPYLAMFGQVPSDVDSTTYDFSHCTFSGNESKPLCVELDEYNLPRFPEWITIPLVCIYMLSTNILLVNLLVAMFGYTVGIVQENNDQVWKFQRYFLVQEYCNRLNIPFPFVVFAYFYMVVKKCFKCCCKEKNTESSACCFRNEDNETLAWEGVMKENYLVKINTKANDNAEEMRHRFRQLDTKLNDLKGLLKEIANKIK
Sequence of Transient receptor potential cation channel subfamily M member 8 (Q8R455 whole entry): as the sequence (Q8R455 whole entry, looked up) above

As for `O=C1NC(c2cccc([N+](=O)[O-])c2)=CCN1c1ccccc1O` [ICILLIN], the Activity result in assay [1] was “Dose-dependent effect”. Also, the EC50 in assay [2] is 0.19 µM.
Consider `CC(C)CCC(=O)c1ccoc1` [PERILLAKETONE], for which the EC50 was 19.7 µM in assay [3] (read-out: EC50) and 40.7 µM in assay [3] (read-out: pEC50 (converted)). For the same molecule, the outcome in assay [4] was inactive. For the same molecule, the outcome in assay [5] and in assay [8] was Active. Moreover, the Efficacy in assay [6] stood at 181%. Moreover, in assay [7], the inhibition amounted to 39.3%.
For the molecule `C=C(C)C1CC=C(C=O)CC1` (stereo not given) [PERILLALDEHYDE], the EC50 is 41 µM in assay [3] (read-out: EC50) and 19.5 µM in assay [3] (read-out: pEC50 (converted)). The result in assay [4] was inactive. Further, the Efficacy in assay [6] turned out to be 74.6%. Also, in assay [7], the inhibition stood at 64.3%. Besides, the outcome in assay [8] was Active.
